Several values for one entry are separate records, joined by “and”; a condition that tells them apart may be missing. Equal entries are not always repeated.
Legend:
[1] = In vitro release kinetics of trans-resveratrol formulation (USP dissolution apparatus); assay type: physicochemical; conditions: pH 6.5 and 2, FIG. 2
Method: Briefly, a 50 mg of RF-20 was dispersed in a 10 mL solution of appropriate pH and kept under constant stirring at 37±0.5° C. […] The amount of resveratrol content in the solution was determined by HPLC, with the help of a calibration curve. The experiment was performed in triplicate and the mean cumulative percentage of released resveratrol was calculated and plotted against time to follow the release kinetics.

[2] = Pharmacokinetics study of resveratrol, randomized double-blinded crossover, capsules and sachets; assay type: in vivo, human; conditions: for Tmax: human, plasma, read-out: Free Resveratrol Tmax
Method: The bioavailability study in human subjects was carried out in two phases. In the first phase, identical hard shell gelatin capsules of either the trans-resveratrol powder formulation obtained in example 1 (RF-20) or unformulated resveratrol (U-tRES) containing 80 mg of trans-resveratrol were provided. […] The unformulated capsule contained 80±5 mg of trans-resveratrol with 98.2% purity isolated from Japanese Knotweed (U-tRES) by an ethanol/water extraction process and about 300 mg of microcrystalline cellulose as an excipient. In the second phase, the same dose of either the trans-resveratrol powder formulation or the unformulated resveratrol was administered in identical stick packs, each weighing about 3 g. Maltodextrin was used as an additive to make up the sachet packs to 3 g and the participants were asked to drink one sachet with about 240 mL of water. The double-blinded, placebo-controlled, randomized pharmacokinetic study was conducted using both capsules and sachets, to investigate the influence of delivery form on the relative bioavailability of trans-resveratrol from RF-20 and U-tRES. Each dose of either the resveratrol powder formulation or the unformulated resveratrol delivered 80±5 mg of trans-resveratrol. […] The blood samples were analysed by tandem mass spectrometry using QTRAP technology to detect, confirm and quantify ‘free’ resveratrol content in biomatrices.

[3] = Pharmacokinetics of fisetin powder formulation in healthy human subjects; assay type: in vivo; conditions: human plasma
Method: The bioavailability of the fisetin formulation was evaluated in healthy human subjects. It has been evaluated in a single dose, randomized, comparative, double-blinded crossover design was adopted to evaluate the difference in the bioavailability and pharmacokinetic parameters (Cmax, AUC, Tmax, and t½) of free (unconjugated) fisetin and geraldol following the oral administration of a fisetin formulation obtained in example 6 (FF-20) and unformulated fisetin (UF). The participants were provided with a capsule contained 500±25 mg of UF or FF-20. Around 50 mg of microcrystalline cellulose was present in each capsule as a flow-improving excipient. Following administration, blood samples (2 mL) were collected 5 min (t0) prior to oral dosing and subsequently at 0.5, 1, 2, 3, 5, 8, and 12 h after oral ingestion of UF or FF-20, using an indwelling venous cannula. Participants were provided with a standardized breakfast, lunch, snack, and dinner respectively at 1, 4, 8, and 12 h after dosing. Plasma was separated by centrifugation at 11,950×g for 10 min at 4° C. and stored for a maximum of two days at −20° C. for analysis. Fisetin and geraldol in plasma samples were extracted and subjected to UPLC-ESI-MS/MS analyses.

[4] = Pharmacokinetics of calcium ascorbate formulation in healthy volunteers; assay type: in vivo, human; conditions: single oral dose of 1000 mg
From the text: The relative bioavailability of the calcium ascorbate formulation obtained in Example 5 (FC+) with respect to the unformulated CAAS (UF-CAAS) powder with >98% purity was investigated in healthy volunteers.
The study was designed as a randomized, double-blinded, single dose study on healthy volunteers. Healthy volunteers (males and females) (n ¼14) aged 18 to 65 years having BMI between 18-25 kgm^−2 were enrolled for the study. Those who were having a history of gut disorders such as irritable bowel syndrome, ulcerative colitis, gastro-oesophageal reflux.
Selected participants were randomized into one of the three treatment arms consisting of three single dose treatments, with either formulated (tablets and capsules) or unformulated (UFCAAS) tablets.
Tablets and hard-shell two-piece hypromellose capsules of both FC+ and UF-CAAS were prepared in such a way that each tablet weighs about 1000±25 mg and each capsule contains 500±25 mg with similar content of CAAS. The study participants were orally administered with a single dose of 1000 mg tablet or capsule as per the study protocol, along with 200±10 mL of normal drinking water.
The quantification of calcium ascorbate in plasma was carried out by a validated HPLC method.

[5] = In vitro release kinetics of calcium ascorbate formulation; assay type: physicochemical; conditions: stomach and intestinal pH conditions, FIG. 5
Method: The in vitro release of ascorbic acid from the calcium ascorbate powder formulation was determined in water containing 1.6 mmol of the disodium salt of EDTA (ethylenediamine tetra acetic acid) at pH 2.0 and 6.8 using 0.1 M HCl and phosphate buffer respectively. 500 mg of calcium ascorbate powder formulation was mixed with 500 mL of EDTA solution to obtain the calcium ascorbate solution. The pH of the calcium ascorbate solution was adjusted and agitated at 100 rpm. About 1 mL of the solution was carefully withdrawn at regular intervals of 0, 1, 2, 4, 6, and 8 h and made up to 100 mL with water. The ascorbate content was then analysed by HPLC method. Analysis was performed in triplicate and the mean cumulative percentage of released ascorbate was calculated and plotted against time to study the in vitro release kinetics of CAAS from the fenugreek galactomannan matrix.

[6] = human plasma, capsule, 80 mg trans-resveratrol per dose
[7] = human plasma, sachet, 80 mg trans-resveratrol per dose

With `Oc1ccc(/C=C/c2cc(O)cc(O)c2)cc1` [U-tRES, trans-resveratrol] the “solubility in release medium” value [1] was “insoluble”, the Tmax ([2]; both sexes, oral, 80 mg, human plasma, capsule, 80 mg trans-resveratrol per dose) was 1.07 ± 0.26 h and the Tmax ([2]; both sexes, oral, 80 mg, human plasma, sachet, 80 mg trans-resveratrol per dose) was 1.21 ± 0.42 h. The half-life ([2]; both sexes, oral, human plasma, sachet, 80 mg trans-resveratrol per dose, read-out: Free Resveratrol t1/2 (converted)) was 1.58 ± 0.65 h, the “time after which plasma levels were undetectable” value ([2]; free resveratrol, sachet) was 3 h and the “free resveratrol AUC0-24 h” value ([2]; human plasma, capsule, 80 mg) was 32.05 ± 9.97 ng·h/mL. For the same molecule, the “Free Resveratrol AUC0-24” value [2, 6] was 32.05 ng·h/mL, the “Free Resveratrol Cmax” value [2, 6] was 16.34 ng/mL and the “Free Resveratrol t1/2” value [2, 6] was 1.58 h. For the same molecule, the “Free Resveratrol Cmax” value ([2]; human plasma, capsule, 80 mg trans-resveratrol per dose, listed as UtRES) was 16.34 ± 5.67 ng/mL, the “Free Resveratrol AUC0-24” value [2, 7] was 31.93 ng·h/mL and the “Free Resveratrol Cmax” value [2, 7] was 15.07 ± 5.10 ng/mL and 15.07 ng/mL. For the same molecule, the “tolerability (side effects or adverse events)” value ([2]; n=16, both phases, 80±5 mg trans-resveratrol per dose) was “without any significant side effects or adverse events”.
`O=c1c(O)c(-c2ccc(O)c(O)c2)oc2cc(O)ccc12` [UF, fisetin] showed a Tmax ([3]; 500 mg, single oral dose) of 0.88 h, a Cmax ([3]; 500 mg, single oral dose, normalized for the higher fisetin intake in UF) of 9.97 ng/mL and an AUC(0-t) ([3]; 500 mg, single oral dose, normalized for the higher fisetin intake in UF, read-out: Fisetin AUC0-12) of 12.7 ng·h/mL. For the same molecule, the half-life ([3]; 500 mg, single oral dose, read-out: Fisetin t1/2 (converted)) was 1.14 h and the “time after dosing up to which fisetin levels were quantifiable” value [3] was 2 h.
In the case of calcium ascorbate [UF-CAAS], the “AUC (plasma ascorbate)” value [4] is reported as 311.4 ± 63.87^ μM · h/mL, the “MRT (plasma ascorbate)” value [4] is reported as 22.67 ± 2.02 h and the “T1/2 (plasma ascorbate)” value [4] is reported as 3.6 h. For the same molecule, the “Tmax (plasma ascorbate)” value [4] was 1 h, the Cmax ([4]; read-out: Cmax (plasma ascorbate)) was 51.7 ± 21 µM and the “in vitro release behaviour” value [5] was “sustained release”.
